Where a name gives a salt, the structure may show the parent alone. Read-outs that look alike come from different tables or passages of the source.
Tests used:
Format in all cases: cell-based
[1] = molecular target: EGFR(D770_N771insSVD) expressing Ba/F3 stable cell line (Homo sapiens, UniProt P00533, DUP768-770, cells depend on it); assay: Cellular proliferation (Alamar Blue) assay, EGFR D770_N771insSVD Ba/F3; details: 72 hr, read-out: D770 IC50
How it was run: (§1)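 Ba/F3 stable lines (15,000 cells/well, RPMI + 10% FBS) seeded 16–18 h, then treated 72 h at 37 °C with compound, final 10–0.0005 μM in 3-fold dilutions. Viability read by Alamar Blue after 3 h incubation.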

[2] = molecular target: HER2 (A775_G776insYVMA) expressing Ba/F3 stable cell line (Homo sapiens, UniProt P04626, DUP772-775, cells depend on it); assay: Cellular proliferation (Alamar Blue) assay, HER2 A775_G776insYVMA Ba/F3; details: 72 hr, read-out: YVMA IC50
Sequence of HER2 (A775_G776insYVMA) expressing Ba/F3 stable cell line (P04626 with tags, fused parts or gaps DUP772-775): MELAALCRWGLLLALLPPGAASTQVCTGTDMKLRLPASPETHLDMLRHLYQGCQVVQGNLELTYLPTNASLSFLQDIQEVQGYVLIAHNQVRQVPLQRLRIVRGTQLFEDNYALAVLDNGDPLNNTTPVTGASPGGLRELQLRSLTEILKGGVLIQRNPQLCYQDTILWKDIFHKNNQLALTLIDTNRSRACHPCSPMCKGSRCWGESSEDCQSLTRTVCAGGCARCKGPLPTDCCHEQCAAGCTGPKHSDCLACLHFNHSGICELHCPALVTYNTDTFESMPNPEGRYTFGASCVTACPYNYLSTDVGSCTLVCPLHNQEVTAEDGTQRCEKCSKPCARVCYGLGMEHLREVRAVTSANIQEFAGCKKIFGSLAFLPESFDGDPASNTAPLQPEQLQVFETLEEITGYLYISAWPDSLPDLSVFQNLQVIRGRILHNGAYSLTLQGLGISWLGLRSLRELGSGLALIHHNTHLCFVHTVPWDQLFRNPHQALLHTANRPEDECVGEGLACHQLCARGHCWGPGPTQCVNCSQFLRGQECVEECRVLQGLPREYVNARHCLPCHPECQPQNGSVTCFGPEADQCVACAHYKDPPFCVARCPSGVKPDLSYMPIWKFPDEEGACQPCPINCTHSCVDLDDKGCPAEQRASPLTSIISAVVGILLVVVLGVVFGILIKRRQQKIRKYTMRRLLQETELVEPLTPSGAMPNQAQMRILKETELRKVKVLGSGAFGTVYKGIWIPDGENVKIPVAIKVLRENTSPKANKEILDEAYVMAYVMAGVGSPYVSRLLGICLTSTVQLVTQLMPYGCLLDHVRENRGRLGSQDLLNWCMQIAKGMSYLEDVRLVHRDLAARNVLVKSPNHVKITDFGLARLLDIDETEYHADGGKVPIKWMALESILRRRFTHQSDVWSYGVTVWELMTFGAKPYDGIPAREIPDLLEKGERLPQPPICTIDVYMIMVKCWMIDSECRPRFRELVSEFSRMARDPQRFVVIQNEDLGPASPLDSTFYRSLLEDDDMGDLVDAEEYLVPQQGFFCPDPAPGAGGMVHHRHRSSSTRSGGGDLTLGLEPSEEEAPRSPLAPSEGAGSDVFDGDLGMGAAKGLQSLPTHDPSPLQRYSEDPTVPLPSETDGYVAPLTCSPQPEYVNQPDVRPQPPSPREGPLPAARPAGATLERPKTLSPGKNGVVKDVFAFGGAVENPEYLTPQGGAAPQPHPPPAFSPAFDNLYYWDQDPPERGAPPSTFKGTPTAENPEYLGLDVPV
Description: • 1. EGFR(D770_N771insSVD) expressing Ba/F3 stable cell line • 2. EGFR (A767_dupASV) expressing Ba/F3 stable cell line • 3. A431 cells • 4. EGFR (H773insNPH) expressing Ba/F3 stable cell line • 5. HER2 (A775_G776insYVMA) expressing Ba/F3 stable cell line Assay Procedure: • 1. Seed cells at 5000 for A431 and 15,000 cells for Ba/F3 in 100 μL/well in complete media (for A431: DMEM with […] and for Ba/F3 cells: RPMI with 10% FBS) in 96-well tissue culture plate. Leave outer wells without cells for background measurements. Incubate at 37 degree Celsius in […] humidified incubator for 16-18 hours. • 2. Add 0.025 ml of 5× concentration compound dilution or DMSO control. Final compound concentration range is 10-0.0005 μM prepared in 3-fold serial dilutions. Incubate for 72 hr at 37 degree Celsius in […] humidified incubator. • 3. Add 0.0125 ml Alamar Blue™ reagent to each well with multi-channel pipette and tap gently on each side of the plate to mix. Incubate for 3 hours at 37 degree Celsius in 5% CO2 humidified incubator. • 4. […] Data analysis was performed using XLfit 5.5.0.5.

[3] = molecular target: EGFR (A767_dupASV) expressing Ba/F3 stable cell line (Homo sapiens, UniProt P00533, DUP767-769, cells depend on it); assay: Cellular proliferation (Alamar Blue) assay, EGFR A767_dupASV Ba/F3; details: 72 hr, read-out: A767 IC50
Sequence of EGFR (A767_dupASV) expressing Ba/F3 stable cell line (P00533 with tags, fused parts or gaps DUP767-769): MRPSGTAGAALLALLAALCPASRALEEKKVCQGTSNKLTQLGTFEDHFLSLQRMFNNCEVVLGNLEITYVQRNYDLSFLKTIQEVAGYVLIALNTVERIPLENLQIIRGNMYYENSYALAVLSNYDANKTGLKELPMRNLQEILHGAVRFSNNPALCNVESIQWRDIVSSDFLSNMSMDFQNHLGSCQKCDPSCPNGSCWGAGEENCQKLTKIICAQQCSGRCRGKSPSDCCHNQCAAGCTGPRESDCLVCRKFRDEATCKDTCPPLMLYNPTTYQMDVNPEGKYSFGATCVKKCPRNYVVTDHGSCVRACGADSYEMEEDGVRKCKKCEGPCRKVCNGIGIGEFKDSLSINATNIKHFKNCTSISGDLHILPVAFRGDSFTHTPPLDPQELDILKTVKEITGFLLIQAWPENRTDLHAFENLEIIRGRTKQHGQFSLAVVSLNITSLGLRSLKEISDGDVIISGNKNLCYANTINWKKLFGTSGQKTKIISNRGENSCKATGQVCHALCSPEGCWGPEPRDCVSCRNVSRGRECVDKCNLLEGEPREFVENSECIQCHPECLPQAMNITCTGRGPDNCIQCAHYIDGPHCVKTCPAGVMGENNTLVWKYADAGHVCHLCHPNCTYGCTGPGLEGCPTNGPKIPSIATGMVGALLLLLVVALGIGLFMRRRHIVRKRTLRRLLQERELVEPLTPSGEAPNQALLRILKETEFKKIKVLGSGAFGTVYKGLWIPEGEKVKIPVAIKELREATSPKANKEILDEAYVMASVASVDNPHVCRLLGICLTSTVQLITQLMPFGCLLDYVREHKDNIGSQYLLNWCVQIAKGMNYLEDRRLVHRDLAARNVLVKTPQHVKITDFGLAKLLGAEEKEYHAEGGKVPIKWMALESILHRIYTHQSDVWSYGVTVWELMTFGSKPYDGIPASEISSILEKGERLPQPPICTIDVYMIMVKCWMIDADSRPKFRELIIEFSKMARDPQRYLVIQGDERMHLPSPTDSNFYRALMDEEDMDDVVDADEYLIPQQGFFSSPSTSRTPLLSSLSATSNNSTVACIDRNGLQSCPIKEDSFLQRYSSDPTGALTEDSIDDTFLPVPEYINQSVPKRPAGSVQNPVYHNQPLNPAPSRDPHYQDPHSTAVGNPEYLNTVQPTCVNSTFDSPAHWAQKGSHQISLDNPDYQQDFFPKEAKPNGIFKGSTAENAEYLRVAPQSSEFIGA
How it was run: as §1

A431 cells = assay: Cellular proliferation (Alamar Blue) assay, A431
[4] = Homo sapiens, A-431; A431 cells, 72 hr, Alamar Blue; read-out: A431 IC50
[5] = Homo sapiens, A-431; A431 cells, Alamar Blue, 72 hr; read-out: A431 IC50

Sequence of EGFR(D770_N771insSVD) expressing Ba/F3 stable cell line (P00533 with tags, fused parts or gaps DUP768-770): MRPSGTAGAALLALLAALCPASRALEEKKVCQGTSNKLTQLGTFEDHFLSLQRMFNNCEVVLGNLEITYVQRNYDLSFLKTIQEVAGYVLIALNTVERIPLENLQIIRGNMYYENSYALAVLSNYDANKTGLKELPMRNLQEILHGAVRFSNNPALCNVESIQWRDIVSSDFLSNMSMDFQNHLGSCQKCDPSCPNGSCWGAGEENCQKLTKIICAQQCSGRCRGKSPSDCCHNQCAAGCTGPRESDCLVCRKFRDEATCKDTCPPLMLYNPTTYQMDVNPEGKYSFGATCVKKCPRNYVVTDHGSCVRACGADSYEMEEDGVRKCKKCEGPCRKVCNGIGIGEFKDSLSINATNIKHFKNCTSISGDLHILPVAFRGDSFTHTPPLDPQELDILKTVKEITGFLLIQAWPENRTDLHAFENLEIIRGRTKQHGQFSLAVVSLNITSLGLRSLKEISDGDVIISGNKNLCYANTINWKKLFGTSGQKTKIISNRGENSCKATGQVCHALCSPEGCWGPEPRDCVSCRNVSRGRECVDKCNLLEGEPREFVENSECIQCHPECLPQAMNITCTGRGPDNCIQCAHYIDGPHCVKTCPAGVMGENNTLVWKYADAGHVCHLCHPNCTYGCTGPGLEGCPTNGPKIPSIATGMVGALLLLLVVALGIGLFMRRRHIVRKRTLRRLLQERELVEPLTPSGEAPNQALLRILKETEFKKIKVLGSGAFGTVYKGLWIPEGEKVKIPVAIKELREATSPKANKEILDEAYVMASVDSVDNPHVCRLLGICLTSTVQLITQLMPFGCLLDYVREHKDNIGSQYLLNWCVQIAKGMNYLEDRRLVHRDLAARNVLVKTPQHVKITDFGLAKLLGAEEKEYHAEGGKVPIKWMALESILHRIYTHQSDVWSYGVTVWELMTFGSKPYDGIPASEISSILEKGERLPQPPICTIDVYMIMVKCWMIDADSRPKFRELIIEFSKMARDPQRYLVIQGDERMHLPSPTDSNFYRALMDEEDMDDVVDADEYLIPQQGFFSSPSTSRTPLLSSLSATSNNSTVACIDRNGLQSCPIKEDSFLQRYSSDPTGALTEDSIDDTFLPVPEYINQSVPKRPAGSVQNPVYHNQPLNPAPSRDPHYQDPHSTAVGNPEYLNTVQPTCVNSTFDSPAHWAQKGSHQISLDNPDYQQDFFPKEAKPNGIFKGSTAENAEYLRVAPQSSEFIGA

C#CC(=O)Nc1ccc(F)c(Nc2nc(Nc3cnn(C)c3)ncc2-c2ccc(C(F)(F)F)cc2)c1 [Compound 254, N-[4-fluoro-3-({2-[(1-methyl-1H-pyrazol-4-yl)amino]-5-[4-(trifluoromethyl)phenyl]pyrimidin-4-yl}amino)phenyl] prop-2-ynamide]
GI50 [1]: 8460 nM | GI50 [2]: 8670 nM | GI50 [3]: 9470 nM | IC50 (A431 cells; [4]): 1000 nM

C=CC(=O)Nc1cccc(Nc2nc(Nc3cnn(C)c3)ncc2NCc2ccccc2)c1 [Compound 32, N-(3-((5-(benzylamino)-2-((1-methyl-1H-pyrazol-4-yl)amino)pyrimidin-4-yl)amino)phenyl)acrylamide]
GI50 [1]: 824 nM | GI50 [2]: 1610 nM | GI50 [3]: 885 nM | IC50 (A431 cells; [5]): > 10000 nM

CN(C)C/C=C/C(=O)Nc1ccc(-c2ccccc2)c(Nc2ccnc(Nc3cnn(C)c3)n2)c1 [Compound 176, (E)-4-(dimethylamino)-N-(2-((2-((1-methyl-1H-pyrazol-4-yl)amino)pyrimidin-4-yl)amino)-[1,1′-biphenyl]-4-yl)but-2-enamide]
GI50 [1]: > 10000 nM | GI50 [2]: > 10000 nM | GI50 [3]: 8020 nM | IC50 (A431 cells; [5]): > 10000 nM

C=CC(=O)Nc1cccc(Nc2nc(Nc3cnn(C)c3)ncc2CN(C(C)=O)C(C)c2ccccc2)c1 (stereo not shown) [Compound 19, N-(3-((2-((1-methyl-1H-pyrazol-4-yl)amino)-5-((N-(1-phenylethyl)acetamido)methyl)pyrimidin-4-yl)amino)phenyl)acrylamide]
GI50 [1]: > 10000 nM | GI50 [2]: > 10000 nM | GI50 [3]: > 10000 nM | IC50 (A431 cells; [5]): > 10000 nM

C=CC(=O)Nc1ccc(F)c(Nc2nc(Nc3cnn(C)c3)ncc2-c2cccc(Br)c2)c1 [Compound 201, N-(3-((5-(3-bromophenyl)-2-((1-methyl-1H-pyrazol-4-yl)amino)pyrimidin-4-yl)amino)-4-fluorophenyl)acrylamide]
GI50 [1]: 270 nM | GI50 [2]: 424 nM | GI50 [3]: 227 nM | IC50 (A431 cells; [4]): 1520 nM

C=CC(=O)Nc1cccc(Nc2nc(Nc3cnn(C)c3)ncc2C(C)N(Cc2ccccc2)C(C)=O)c1 (stereo not shown) [Compound 47, N-(3-((5-(1-(N-benzylacetamido)ethyl)-2-((1-methyl-1H-pyrazol-4-yl)amino)pyrimidin-4-yl)amino)phenyl)acrylamide]
GI50 [1]: 8850 nM | GI50 [2]: > 10000 nM | GI50 [3]: 7080 nM | IC50 (A431 cells; [5]): > 10000 nM

C=CC(=O)Nc1ccc(F)c(Nc2nc(Nc3cnn(C)c3)ncc2-c2ccc(Oc3cccc(F)c3)cc2)c1 [Compound 300, N-(4-fluoro-3-((5-(4-(3-fluorophenoxy)phenyl)-2-((1-methyl-1H-pyrazol-4-yl)amino)pyrimidin-4-yl)amino)phenyl)acrylamide]
GI50 [1]: 1160 nM | GI50 [2]: 9740 nM | GI50 [3]: 289 nM | IC50 (A431 cells; [4]): 229 nM

CN(C)C/C=C/C(=O)Nc1ccc(F)c(Nc2nc(Nc3cnn(C)c3)ncc2C#Cc2ccccc2)c1 [Compound 162, (E)-4-(dimethylamino)-N-(4-fluoro-3-((2-((1-methyl-1H-pyrazol-4-yl)amino)-5-(phenylethynyl)pyrimidin-4-yl)amino)phenyl)but-2-enamide]
GI50 [1]: 1850 nM | GI50 [2]: 1880 nM | GI50 [3]: 656 nM | IC50 (A431 cells; [5]): 2850 nM

C=CC(=O)Nc1ccc(F)c(Nc2nc(Nc3cnn(C)c3)ncc2-c2ccc(N3CCOCC3)nc2)c1 [Compound 55, N-[4-fluoro-3-({2-[(1-methyl-1H-pyrazol-4-yl)amino]-5-[6-(morpholin-4-yl)pyridin-3-yl]pyrimidin-4-yl}amino)phenyl] prop-2-enamide]
GI50 [1]: 945 nM | GI50 [2]: 1870 nM | GI50 [3]: 492 nM | IC50 (A431 cells; [5]): > 10000 nM

C=CC(=O)Nc1ccc(F)c(Nc2nc(Nc3cnn(C)c3)ncc2-c2ccc3c(ccn3C)c2)c1 [Compound 77, N-(4-fluoro-3-((5-(1-methyl-1H-indol-5-yl)-2-((1-methyl-1H-pyrazol-4-yl)amino)pyrimidin-4-yl)amino)phenyl)acrylamide trifluoroacetate]
GI50 [1]: 299 nM | GI50 [2]: 2750 nM | GI50 [3]: 774 nM | IC50 (A431 cells; [5]): 1030 nM

CC(NC(=O)c1cnc(Nc2cnn(C)c2)nc1Nc1cccc(NC(=O)/C=C/CN(C)C)c1)c1ccccc1 (stereo not shown) [Compound 35, (E)-4-((3-(4-(dimethylamino)but-2-enamido)phenyl)amino)-2-((1-methyl-1H-pyrazol-4-yl)amino)-N-(1-phenylethyl)pyrimidine-5-carboxamide]
GI50 [1]: > 10000 nM | GI50 [2]: > 10000 nM | GI50 [3]: > 10000 nM | IC50 (A431 cells; [5]): > 10000 nM

C=CC(=O)Nc1ccc(F)c(Nc2nc(Nc3cnn(C)c3)ncc2-c2ccn3ccnc3c2)c1 [Compound 132, N-(4-fluoro-3-((5-(imidazo[1,2-a]pyridin-7-yl)-2-((1-methyl-1H-pyrazol-4-yl)amino)pyrimidin-4-yl)amino)phenyl)acrylamide]
GI50 [1]: 203 nM | GI50 [2]: 151 nM | GI50 [3]: 368 nM | IC50 (A431 cells; [5]): 504 nM

C=CC(=O)Nc1ccc(F)c(Nc2nc(Nc3cnn(C)c3)ncc2C(F)(F)F)c1 [Compound 36, N-(4-fluoro-3-((2-((1-methyl-1H-pyrazol-4-yl)amino)-5-(trifluoromethyl)pyrimidin-4-yl)amino)phenyl)acrylamide]
GI50 [1]: 357 nM | GI50 [2]: 416 nM | GI50 [3]: 332 nM | IC50 (A431 cells; [5]): 8150 nM

C=CC(=O)Nc1cc(Nc2nc(Nc3cnn(C)c3)ncc2-c2ccc(C(F)(F)F)cc2)ccc1F [Compound 238, N-(2-fluoro-5-((2-((1-methyl-1H-pyrazol-4-yl)amino)-5-(4-(trifluoromethyl)phenyl)pyrimidin-4-yl)amino)phenyl)acrylamide]
GI50 [1]: 312 nM | GI50 [2]: 3010 nM | GI50 [3]: 90 nM | IC50 (A431 cells; [4]): 617 nM

C=CC(=O)Nc1cccc(Nc2nc(Nc3cnn(C)c3)ncc2NS(=O)(=O)c2ccccc2)c1 [Compound 29, N-(3-((2-((1-methyl-1H-pyrazol-4-yl)amino)-5-(phenylsulfonamido)pyrimidin-4-yl)amino)phenyl)acrylamide]
GI50 [1]: > 10000 nM | GI50 [2]: > 10000 nM | GI50 [3]: > 10000 nM | IC50 (A431 cells; [5]): > 10000 nM

C=CC(=O)Nc1ccc(C(=O)Nc2ccccc2)c(Nc2ccnc(Nc3cnn(C)c3)n2)c1 [Compound 164, 4-acrylamido-2-((2-((1-methyl-1H-pyrazol-4-yl)amino)pyrimidin-4-yl)amino)-N-phenylbenzamide]
GI50 [1]: > 10000 nM | GI50 [2]: 9490 nM | GI50 [3]: > 10000 nM | IC50 (A431 cells; [5]): > 10000 nM

C=CC(=O)Nc1ccc(F)c(Nc2nc(Nc3cnn(C)c3)ncc2-c2ccc(C3CC3)cc2)c1 [Compound 128, N-(3-((5-(4-cyclopropylphenyl)-2-((1-methyl-1H-pyrazol-4-yl)amino)pyrimidin-4-yl)amino)-4-fluorophenyl)acrylamide trifluoroacetate]
GI50 [1]: 101 nM | GI50 [2]: 654 nM | GI50 [3]: 114 nM | IC50 (A431 cells; [5]): 64 nM

C=CC(=O)Nc1ccc(F)c(Nc2nc(Nc3cnn(CCO)c3)ncc2Cl)c1 [Compound 15, N-(3-((5-chloro-2-((1-(2-hydroxyethyl)-1H-pyrazol-4-yl)amino)pyrimidin-4-yl)amino)-4-fluorophenyl)acrylamide]
GI50 [1]: 373 nM | GI50 [2]: 543 nM | GI50 [3]: 371 nM | IC50 (A431 cells; [5]): 4220 nM

C=CC(=O)Nc1ccc(F)c(Nc2nc(Nc3cnn(C)c3)ncc2-c2ccncc2)c1 [Compound 137, N-(4-fluoro-3-((2-((1-methyl-1H-pyrazol-4-yl)amino)-5-(pyridin-4-yl)pyrimidin-4-yl)amino)phenyl)acrylamide]
GI50 [1]: 254 nM | GI50 [2]: 751 nM | GI50 [3]: 325 nM | IC50 (A431 cells; [5]): > 10000 nM

C=CC(=O)Nc1ccc(F)c(Nc2nc(Nc3cnn(C4COC4)c3)ncc2-c2ccc(Br)cc2)c1 [Compound 205, N-(3-((5-(4-bromophenyl)-2-((1-(oxetan-3-yl)-1H-pyrazol-4-yl)amino)pyrimidin-4-yl)amino)-4-fluorophenyl)acrylamide]
GI50 [1]: 39 nM | GI50 [2]: 278 nM | GI50 [3]: 73 nM | IC50 (A431 cells; [4]): 132 nM

CN(C)C/C=C/C(=O)Nc1cccc(Nc2nc(Nc3cnn(C)c3)ncc2NCc2ccccc2)c1 [Compound 33, (E)-N-(3-((5-(benzylamino)-2-((1-methyl-1H-pyrazol-4-yl)amino)pyrimidin-4-yl)amino)phenyl)-4-(dimethylamino)but-2-enamide]
GI50 [1]: 2980 nM | GI50 [2]: 3030 nM | GI50 [3]: 4070 nM | IC50 (A431 cells; [5]): 4010 nM

CN(C)C/C=C/C(=O)Nc1cccc(Nc2nc(Nc3cnn(C)c3)ncc2CNc2ccccc2)c1 [Compound 17, (E)-4-(dimethylamino)-N-(3-((2-((1-methyl-1H-pyrazol-4-yl)amino)-5-((phenylamino)methyl)pyrimidin-4-yl)amino)phenyl)but-2-enamide]
GI50 [1]: 1530 nM | GI50 [2]: 1880 nM | GI50 [3]: 1020 nM | IC50 (A431 cells; [5]): 7740 nM
